Source: patent US9175044B2, “Derivatives of glyco-CF2-serine and glyco-CF2-threonine” (TFCHEM, priority 2010, dated 2015)

Legend:
β-galactosidase = molecular target: T1, β-galactosidase (Escherichia coli, UniProt P00722); assay type: in vitro ADME; conditions: 24 h at 37° C.; for hydrolysis after incubation with β-galactosidase, mass spectra with vs without enzyme: ammonium acetate buffer 10 mM pH 7, β-galactosidase 4.5 U, MS (ESI)
T1 construct: purchased Sigma 48275
Protocol: The enzymatic stability has been performed with compound Ad1 and Ad2 according to the invention and compound B used as a reference compound to control the efficacy of the β-galactosidase. Both compounds have been treated with β-galactosidase. The stability of compound Ad1 and Ad2 has been assessed by mass spectrum (MS) analysis after incubation with β-galactosidase. The samples have been injected and ionized by electrospray (ES) (in positive and negative mode). The procedure has been adapted from Maljaars et al. J. Comb. Chem. 2006, 8, 812-819.
Test compound Ad1 (12 μmol, 5.3 mg) in 1.5 mL ammonium acetate buffer (10 mM, pH 7) was kept 24 h at 37° C. in the presence and absence of β-galactosidase (4.5 U, 32 μL of a 1 mg·mL^−1 solution in ammonium acetate buffer, (48275 sigma, 140 U per mg)). 300 μL of the sample was filtered through a 3-kDa-cutoff centrifugal filter (Millipore), and the filter was washed with H2O (2×300 μL). The obtained solutions were diluted in water/methanol 1:1 (3 μL in 1 mL).
Test compound Ad2 (12 μmol, 5.3 mg) has been treated in the presence and absence of β-galactosidase following the same process.
These samples of compound Ad1 and Ad2 in presence of β-galactosidase have been submitted to mass spectra and compared to the mass spectra of compound Ad1 and Ad2 in absence of β-galactosidase.
The two samples were also analyzed by F-NMR to confirm that the test compound Ad1 and Ad2 were not cleaved by the β-galactosidase.
In parallel, p-nitrophenyl-β-galactoside (compound B, 12 μmol, 3.6 mg) in 1.5 mL ammonium acetate buffer (10 mM, pH 7) was kept 24 h at 37° C. in the presence and absence of β-galactosidase (4.5 U, 32 μL of a 1 mg·mL^−1 solution in ammonium acetate buffer (48275 sigma, 140 U per mg)).
The optical density (OD) of the two samples was measured at 420 nm to verify that the β-galactosidase is working and that degradation occurs on compound B (OD420 with β-galactosidase=1.5786/OD420 without β-galactosidase=0.0465).

α-galactosidase = molecular target: T2, α-galactosidase (Coffea arabica, UniProt Q42656); assay: Enzymatic stability of α-Gal-CF2-Ser pseudo-glycosidic bond with α-galactosidase; assay type: in vitro ADME; conditions: 24 h at 37° C.; for hydrolysis after incubation with α-galactosidase, mass spectra with vs without enzyme: ammonium acetate buffer 10 mM pH 7, α-galactosidase 2.25 U, MS; for cleavage by α-galactosidase, F-NMR analysis: ammonium acetate buffer pH 7, α-galactosidase 2.25 U
T2 construct: purchased Sigma G8507
T2 sequence (Q42656 16-378): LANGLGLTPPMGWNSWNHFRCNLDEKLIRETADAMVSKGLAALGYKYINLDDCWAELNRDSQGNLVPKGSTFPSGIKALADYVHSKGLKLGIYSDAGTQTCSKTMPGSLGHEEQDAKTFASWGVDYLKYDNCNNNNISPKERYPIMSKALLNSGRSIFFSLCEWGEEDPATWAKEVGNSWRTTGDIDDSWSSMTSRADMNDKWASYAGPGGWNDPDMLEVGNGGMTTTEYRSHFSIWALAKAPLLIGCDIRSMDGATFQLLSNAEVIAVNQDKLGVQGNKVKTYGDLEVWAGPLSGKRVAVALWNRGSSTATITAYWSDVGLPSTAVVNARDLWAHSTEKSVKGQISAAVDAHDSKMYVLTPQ
Protocol: The enzymatic stability has been performed with compounds Cd1, Cd2, Dd1 and Dd2 according to the invention and compound F was used as a reference compound to control the efficacy of the α-galactosidase. All the compounds have been treated with α-galactosidase. The stability of compounds Cd1, Cd2, Dd1 and Dd2 has been assessed by MS analysis after incubation with α-galactosidase. The procedure has been adapted from Maljaars et al. J. Comb. Chem. 2006, 8, 812-819.
Test compound Cd1 ([…], 1.8 mg) in 0.75 mL ammonium acetate buffer (10 mM, pH 7) was kept 24 h at 37° C. in the presence and absence of α-galactosidase (2.25 U, 41 μL of a 3.7 mg·mL^−1 suspension in ammonium sulphate (G8507 sigma, 14.7 U/mg)). 300 μL of the samples were filtered through a 3-kDa-cutoff centrifugal filter (Millipore) and the filter was washed with H2O (2×300 μL). The resultant solutions were diluted in water/methanol 1:1 (3 μL in 1 mL);
Test compound Cd2 ([…], 5.3 mg) has been treated in the presence and absence of α-galactosidase following the same process.
The samples of compound Cd1 and Cd2 in presence of α-galactosidase have been analyzed by mass spectrometry and their spectra compared to the mass spectra of compound Cd1 and Cd2 in absence of α-galactosidase.
The same procedure was applied to compound Dd1 ([…], 2.6 mg) and Dd2 ([…], 2.6 mg).
In parallel, p-nitrophenyl-α-galactoside (compound F, 6 μmol, 1.8 mg) in 0.75 mL of ammonium acetate buffer (10 mM, pH 7) was kept 24 h at 37° C. in the presence and absence of α-galactosidase 2.25 U, 41 μL of a 3.7 mg·mL^−1 suspension in ammonium sulphate ((G8507 sigma) 14.7 U/mg). The OD of the two samples was measured at 420 nm to verify that the α-galactosidase is working and that degradation occurs on compound F (OD420 with α-galactosidase=1.6303/OD420 without α-galactosidase=0.0124).

[1] = tested on: neonatal human skin fibroblasts (Cell line: CCD-27SK); assay: Preservation of neonatal skin fibroblasts under starvation conditions (Trypan blue viability assay); assay type: cell-based; conditions: for effect on skin fibroblasts under unfavorable conditions for growth: 5 mg/ml in starvation medium, 7 days
Protocol: • The neonatal human skin fibroblasts (Cell line: CCD-27SK, ATCC number CRL-1475) were grown with DMEM medium supplemented with Fetal Bovine Serum 10% final, antibiotics (Penicillin/Streptomycin) 1% final and Amphotericin B 0.1% final. • Fibroblasts were grown in 75 cm^2 culture flask to 80% confluence, in 37° C. and 10% CO2 incubator. The medium was changed every two days by 37° C. preheated fresh medium. Starvation Medium • This medium was composed of 45% subculture medium without Fetal Bovine Serum mixed with 55% of Phosphate Buffer Saline 1× containing EDTA (final concentration of 0.45 mM). This was referred to as serum free or starvation medium. Product Preparation • The compounds 13(b)αd1 and 13(b)αd2 (M=479.9 g/mol) were diluted in starvation medium to 5 mg/ml final and pH was adjusted at 7.4 by addition of NaOH 1N. […] So, only the dead cells are blue at microscopic observation. • For sampling, 110 μl of Trypan Blue (SIGMA T8154) was added to 110 μl of trypsinated cell suspension of matching well for counting. • 200 μl of the trypan blue/cell mixture are dropped to a hemacytometer. Cells are counting by using a Neubauer-counting chamber. The unstained (viable) and stained (nonviable) cells are counted separately on 9 area of a large square (1 mm^2) and added to obtain the total number of cells per sample. An average of three counts was used to calculate the viability percentage as: [number of viable cells/total number of cells]*100 • The cell viability percentages from cultures under starvation conditions were compared with control culture for several days after their addition (D0, D3, D4, D5, D6, D7). Results

[2] = ammonium acetate buffer pH 7, β-galactosidase 4.5 U

T1 sequence (P00722 2-1024): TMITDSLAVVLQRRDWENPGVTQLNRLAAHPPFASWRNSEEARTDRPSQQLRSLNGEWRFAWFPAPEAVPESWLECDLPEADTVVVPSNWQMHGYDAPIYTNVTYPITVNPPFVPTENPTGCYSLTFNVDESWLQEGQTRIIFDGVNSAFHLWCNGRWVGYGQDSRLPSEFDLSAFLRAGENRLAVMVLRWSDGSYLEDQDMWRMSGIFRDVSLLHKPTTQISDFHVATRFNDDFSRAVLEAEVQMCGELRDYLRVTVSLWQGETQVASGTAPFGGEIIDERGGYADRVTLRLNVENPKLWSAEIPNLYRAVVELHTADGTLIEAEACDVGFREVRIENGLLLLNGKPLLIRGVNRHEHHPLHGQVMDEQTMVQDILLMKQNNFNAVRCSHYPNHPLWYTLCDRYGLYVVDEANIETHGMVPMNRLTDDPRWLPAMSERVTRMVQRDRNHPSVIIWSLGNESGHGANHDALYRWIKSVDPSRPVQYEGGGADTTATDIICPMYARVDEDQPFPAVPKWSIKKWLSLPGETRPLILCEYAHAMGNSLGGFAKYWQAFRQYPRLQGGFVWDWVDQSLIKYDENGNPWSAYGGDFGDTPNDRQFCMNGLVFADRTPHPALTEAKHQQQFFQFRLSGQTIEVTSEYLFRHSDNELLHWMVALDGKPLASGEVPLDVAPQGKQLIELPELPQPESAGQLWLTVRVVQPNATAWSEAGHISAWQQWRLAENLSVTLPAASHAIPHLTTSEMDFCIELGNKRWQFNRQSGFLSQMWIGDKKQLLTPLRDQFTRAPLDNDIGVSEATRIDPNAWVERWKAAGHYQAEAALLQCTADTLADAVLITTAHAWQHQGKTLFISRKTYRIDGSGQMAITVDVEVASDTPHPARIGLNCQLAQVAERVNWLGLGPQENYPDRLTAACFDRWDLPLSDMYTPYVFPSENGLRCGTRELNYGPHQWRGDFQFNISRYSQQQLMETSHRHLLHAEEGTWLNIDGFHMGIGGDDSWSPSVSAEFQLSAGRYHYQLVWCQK

## C[C@H](NC(=O)[C@H](C)NC(=O)C(N)CC(F)(F)[C@@H]1O[C@H](CO)[C@H](O)[C@H](O)[C@H]1O)C(=O)O (stereo partly shown) [Ad2]
β-galactosidase
  hydrolysis after incubation with β-galactosidase, mass spectra with vs without enzyme: no hydrolysis occurs
β-galactosidase; [2]
  cleavage by β-galactosidase, F-NMR analysis: not cleaved

## C[C@H](NC(=O)[C@H](C)NC(=O)C(N)CC(F)(F)[C@H]1O[C@H](CO)[C@H](O)[C@H](O)[C@H]1O)C(=O)O (single isomer, unassigned) [Dd2]
α-galactosidase
  hydrolysis after incubation with α-galactosidase, mass spectra with vs without enzyme: no hydrolysis occurs
  cleavage by α-galactosidase, F-NMR analysis: not cleaved

## O=[N+]([O-])c1ccc(O[C@@H]2O[C@H](CO)[C@H](O)[C@H](O)[C@H]2O)cc1 [B, p-nitrophenyl-β-galactoside, reference compound]
β-galactosidase; [2]
  visual observation in the presence of β-galactosidase (decomposition): yellow coloration was observed

## NC(CC(F)(F)[C@H]1O[C@H](CO)[C@H](O)[C@H](O)[C@H]1O)C(=O)O (stereo partly shown) [Cd2]
α-galactosidase
  hydrolysis after incubation with α-galactosidase, mass spectra with vs without enzyme: no hydrolysis occurs
  cleavage by α-galactosidase, F-NMR analysis: not cleaved

## NC(CC(F)(F)[C@H]1O[C@H](CO)[C@H](O)[C@H](O)[C@H]1O)C(=O)O (stereo partly shown) [Cd1]
α-galactosidase
  hydrolysis after incubation with α-galactosidase, mass spectra with vs without enzyme: no hydrolysis occurs
  cleavage by α-galactosidase, F-NMR analysis: not cleaved

## C[C@H](NC(=O)[C@H](C)NC(=O)C(N)CC(F)(F)[C@@H]1O[C@H](CO)[C@H](O)[C@H](O)[C@H]1O)C(=O)O (stereo partly shown) [Ad1]
β-galactosidase
  hydrolysis after incubation with β-galactosidase, mass spectra with vs without enzyme: no hydrolysis occurs
β-galactosidase; [2]
  cleavage by β-galactosidase, F-NMR analysis: not cleaved

## C[C@H](NC(=O)[C@H](C)NC(=O)C(N)CC(F)(F)[C@H]1O[C@H](CO)[C@H](O)[C@H](O)[C@H]1O)C(=O)O (single isomer, unassigned) [13(b)αd1]
[1]
  effect on skin fibroblasts under unfavorable conditions for growth: preservative effect
[1]; Homo sapiens, CCD-27Sk, 168 h, 5 mg/ml in starvation (serum free) medium, up to 7 days of incubation, Trypan blue exclusion, read-out: fibroblast viability
  viability at 5000 µg/mL: ~95%

## C[C@H](NC(=O)[C@H](C)NC(=O)C(N)CC(F)(F)[C@H]1O[C@H](CO)[C@H](O)[C@H](O)[C@H]1O)C(=O)O (single isomer, unassigned) [Dd1]
α-galactosidase
  hydrolysis after incubation with α-galactosidase, mass spectra with vs without enzyme: no hydrolysis occurs
  cleavage by α-galactosidase, F-NMR analysis: not cleaved

## C[C@H](NC(=O)[C@H](C)NC(=O)C(N)CC(F)(F)[C@H]1O[C@H](CO)[C@H](O)[C@H](O)[C@H]1O)C(=O)O (single isomer, unassigned) [13(b)αd2]
[1]
  effect on skin fibroblasts under unfavorable conditions for growth: preservative effect
